Test results as given in patent US7994140B2, “Classes of compounds that interact with GPCRs” (Alchemia Limited, priority 2002, dated 2011).

What follows are compounds tested against T1, MC4 (Homo sapiens, UniProt P32245) (assay: GPCR radioligand binding (RLB) assay, melanocortin MC4, [125I]NDP-αMSH). Details: 4.0 Micromolar; Example Library 10.
T1 construct: purchased Perkin Elmer BioSignal; host or cells: HEK 293
T1 sequence (P32245 whole entry): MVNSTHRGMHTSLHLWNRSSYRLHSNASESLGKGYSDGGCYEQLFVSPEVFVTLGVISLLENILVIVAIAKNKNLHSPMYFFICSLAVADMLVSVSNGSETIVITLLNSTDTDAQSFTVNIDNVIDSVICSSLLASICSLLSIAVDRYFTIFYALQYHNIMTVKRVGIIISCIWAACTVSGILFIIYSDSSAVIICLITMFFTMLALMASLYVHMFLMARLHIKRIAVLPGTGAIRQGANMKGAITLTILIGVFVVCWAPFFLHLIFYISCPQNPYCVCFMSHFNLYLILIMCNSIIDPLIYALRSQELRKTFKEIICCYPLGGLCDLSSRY
Protocol: Recombinant human receptors expressed in HEK 293 cells were used for all experiments. Receptor membrane preparations were purchased from Perkin Elmer BioSignal. The labelled ligand used in somatostatin GPCR RLB assays was [^125I]SST-14 and in melanocortin assays was [^125I]NDP-αMSH. All assays were done in a 96-well plate format using either glass fiber filter mats or filter plates. All reagents purchased were of the highest quality.
Specific assay buffer, incubation and washing conditions were optimized for each receptor however they all followed the same general format. The procedures for both filter mat and filter plate formats are based on the receptor manufacturers recommendations or those described extensively in the literature. The procedures are briefly outlined below.
In assays where filter mats are used we incubate receptor membranes, assay buffer and [^125I] labelled ligand in 96 well microplates. Add compounds to incubation mixture and continue incubation for optimized period. Presoak Filter mat GF/B in 0.5% PEI for ˜2 hr at 4° C. On completion of assay mixture incubation add additional 100 μL/well of assay buffer immediately prior to filtration. Filter the assay mixture onto the GF/B filter mat using a cell harvester. Dry the filter mats prior to sealing them into a scintillation counting bag with scintillant. Radioactivity in each well is detected by liquid scintillation counting.
In assays where filter plates are used Multiscreen glass fiber filter plates (Millipore, Cat No MAFCNOB10) are precoated with 0.5% PEI for ˜2 hr at 4° C. All wells are then washed with 200 µl/well assay buffer and filtered using the Multiscreen Separation System. Subsequently receptor membranes, assay buffer and labelled ligands are added to the wells and equilibrated. Compounds for testing are then added to the mixture and incubation is continued for an optimized time. Plates are then put into the Multiscreen Separation System and the assay mixture is filtered through the plate under vacuum. Each well is then washed several times with assay buffer. Plates are then dried prior to putting sealing tape onto the bottom of the plate. Scintillant is added to each well and radioactivity measured by liquid scintillation counting.
Raw data was analysed according to standard methods using either GraphPad Prism software or IDDBS ActivityBase software.
With `NCC(=O)N[C@H]1C(OCc2ccc3ccccc3c2)O[C@H](COCc2ccc3ccccc3c2)[C@@H](O)[C@@H]1OCc1ccc(Cl)cc1` (some centres unmarked) [Compound 350] the “MC4 Inhibition at 4.0 Micromolar” value was “+ (Indicates inhibition greater than . . . 50%)”. For `NCC(=O)N[C@H]1C(OCc2ccc3ccccc3c2)O[C@H](COCc2ccc3ccccc3c2)[C@@H](O)[C@@H]1OCc1ccc(Cl)cc1` (some centres unmarked) [Compound 351], the “MC4 Inhibition at 4.0 Micromolar” value was “+ (Indicates inhibition greater than . . . 50%)”. In the case of `NCCC(=O)N[C@H]1C(OCc2ccc3ccccc3c2)O[C@H](COCc2ccccc2)[C@@H](O)[C@@H]1OCc1ccc(Cl)cc1` (some centres unmarked) [Compound 352], the “MC4 Inhibition at 4.0 Micromolar” value is reported as “+ (Indicates inhibition greater than . . . 50%)”. In the case of `NCCC(=O)N[C@H]1C(OCc2ccc3ccccc3c2)O[C@H](COCc2ccccc2)[C@@H](O)[C@@H]1OCc1ccc(Cl)cc1` (some centres unmarked) [Compound 353], the “MC4 Inhibition at 4.0 Micromolar” value is reported as “+ (Indicates inhibition greater than . . . 50%)”. For `NCCC(=O)N[C@H]1C(OCc2ccc3ccccc3c2)O[C@H](COCc2ccc(Cl)cc2)[C@@H](O)[C@@H]1OCc1ccc(Cl)cc1` (some centres unmarked) [Compound 354], the “MC4 Inhibition at 4.0 Micromolar” value was “+ (Indicates inhibition greater than . . . 50%)”. For `NCCC(=O)N[C@H]1C(OCc2ccc3ccccc3c2)O[C@H](COCc2ccc(Cl)cc2)[C@@H](O)[C@@H]1OCc1ccc(Cl)cc1` (some centres unmarked) [Compound 355], the “MC4 Inhibition at 4.0 Micromolar” value was “+ (Indicates inhibition greater than . . . 50%)”. For `NCC(=O)N[C@H]1C(OCc2ccc3ccccc3c2)O[C@H](COCc2ccc3ccccc3c2)[C@@H](O)[C@@H]1OCc1ccc2ccccc2c1` (some centres unmarked) [Compound 356], the “MC4 Inhibition at 4.0 Micromolar” value was “+ (Indicates inhibition greater than . . . 50%)”. With `NCCC(=O)N[C@H]1C(OCc2ccc3ccccc3c2)O[C@H](COCc2ccc3ccccc3c2)[C@@H](O)[C@@H]1OCc1ccc2ccccc2c1` (some centres unmarked) [Compound 357] the “MC4 Inhibition at 4.0 Micromolar” value was “+ (Indicates inhibition greater than . . . 50%)”. For `NCCC(=O)N[C@H]1C(OCc2ccc3ccccc3c2)O[C@H](COCc2ccccc2)[C@@H](O)[C@@H]1OCc1ccc2ccccc2c1` (some centres unmarked) [Compound 358], the “MC4 Inhibition at 4.0 Micromolar” value was “+ (Indicates inhibition greater than . . . 50%)”. In the case of `NCCC(=O)N[C@H]1C(OCc2ccc3ccccc3c2)O[C@H](COCc2ccc(Cl)cc2)[C@@H](O)[C@@H]1OCc1ccc2ccccc2c1` (some centres unmarked) [Compound 359], the “MC4 Inhibition at 4.0 Micromolar” value is reported as “+ (Indicates inhibition greater than . . . 50%)”. With `NCCC(=O)N[C@H]1C(OCc2ccc3ccccc3c2)O[C@H](COCc2ccc(Cl)cc2)[C@@H](O)[C@@H]1OCc1ccc2ccccc2c1` (some centres unmarked) [Compound 360] the “MC4 Inhibition at 4.0 Micromolar” value was “+ (Indicates inhibition greater than . . . 50%)”. With `NCCC(=O)N[C@H]1C(OCc2ccc3ccccc3c2)O[C@H](COCc2ccc3ccccc3c2)[C@@H](O)[C@@H]1OCc1ccccc1` (some centres unmarked) [Compound 361] the “MC4 Inhibition at 4.0 Micromolar” value was “+ (Indicates inhibition greater than . . . 50%)”. `NCC(=O)N[C@H]1C(OCc2ccc3ccccc3c2)O[C@H](COCc2ccc(Cl)cc2)[C@@H](O)[C@@H]1OCc1ccccc1` (some centres unmarked) [Compound 364] was tested, and the “MC4 Inhibition at 4.0 Micromolar” value was “+ (Indicates inhibition greater than . . . 50%)”. With `NCCCC(=O)N[C@H]1C(OCc2ccc3ccccc3c2)O[C@H](COCc2ccc3ccccc3c2)[C@@H](O)[C@@H]1OCc1ccc2ccccc2c1` (some centres unmarked) [Compound 369] the “MC4 Inhibition at 4.0 Micromolar” value was “+ (Indicates inhibition greater than . . . 50%)”. With `NCCCC(=O)N[C@H]1C(OCc2ccc3ccccc3c2)O[C@H](COCc2ccccc2)[C@@H](O)[C@@H]1OCc1ccccc1` (some centres unmarked) [Compound 374] the “MC4 Inhibition at 4.0 Micromolar” value was “+ (Indicates inhibition greater than . . . 50%)”. `NCCCC(=O)N[C@H]1C(OCc2ccc3ccccc3c2)O[C@H](COCc2ccc(Cl)cc2)[C@@H](O)[C@@H]1OCc1ccccc1` (some centres unmarked) [Compound 375] was tested, and the “MC4 Inhibition at 4.0 Micromolar” value was “+ (Indicates inhibition greater than . . . 50%)”. For `NCCC(=O)N[C@H]1C(OCc2ccc(Cl)cc2)O[C@H](COCc2ccccc2)[C@@H](O)[C@@H]1OCc1ccc(Cl)cc1` (some centres unmarked) [Compound 376], the “MC4 Inhibition at 4.0 Micromolar” value was “+ (Indicates inhibition greater than . . . 50%)”. In the case of `NCCC(=O)N[C@H]1C(OCc2ccc(Cl)cc2)O[C@H](COCc2ccc(Cl)cc2)[C@@H](O)[C@@H]1OCc1ccc(Cl)cc1` (some centres unmarked) [Compound 377], the “MC4 Inhibition at 4.0 Micromolar” value is reported as “+ (Indicates inhibition greater than . . . 50%)”. `NCCC(=O)N[C@H]1C(OCc2ccc(Cl)cc2)O[C@H](COCc2ccc3ccccc3c2)[C@@H](O)[C@@H]1OCc1ccc2ccccc2c1` (some centres unmarked) [Compound 378] was tested, and the “MC4 Inhibition at 4.0 Micromolar” value was “+ (Indicates inhibition greater than . . . 50%)”. In the case of `NCCC(=O)N[C@H]1C(OCc2ccc(Cl)cc2)O[C@H](COCc2ccccc2)[C@@H](O)[C@@H]1OCc1ccc2ccccc2c1` (some centres unmarked) [Compound 379], the “MC4 Inhibition at 4.0 Micromolar” value is reported as “+ (Indicates inhibition greater than . . . 50%)”. In the case of `NCC(=O)N[C@H]1C(OCc2ccc(Cl)cc2)O[C@H](COCc2ccccc2)[C@@H](O)[C@@H]1OCc1ccc2ccccc2c1` (some centres unmarked) [Compound 380], the “MC4 Inhibition at 4.0 Micromolar” value is reported as “+ (Indicates inhibition greater than . . . 50%)”. `NCCC(=O)N[C@H]1C(OCc2ccc(Cl)cc2)O[C@H](COCc2ccc(Cl)cc2)[C@@H](O)[C@@H]1OCc1ccc2ccccc2c1` (some centres unmarked) [Compound 381] was tested, and the “MC4 Inhibition at 4.0 Micromolar” value was “+ (Indicates inhibition greater than . . . 50%)”. In the case of `NCC(=O)N[C@H]1C(OCc2ccc(Cl)cc2)O[C@H](COCc2ccc(Cl)cc2)[C@@H](O)[C@@H]1OCc1ccc2ccccc2c1` (some centres unmarked) [Compound 382], the “MC4 Inhibition at 4.0 Micromolar” value is reported as “+ (Indicates inhibition greater than . . . 50%)”. With `NCCC(=O)N[C@H]1C(OCc2ccc(Cl)cc2)O[C@H](COCc2ccc3ccccc3c2)[C@@H](O)[C@@H]1OCc1ccccc1` (some centres unmarked) [Compound 383] the “MC4 Inhibition at 4.0 Micromolar” value was “+ (Indicates inhibition greater than . . . 50%)”. For `NCC(=O)N[C@H]1C(OCc2ccc(Cl)cc2)O[C@H](COCc2ccccc2)[C@@H](O)[C@@H]1OCc1ccccc1` (some centres unmarked) [Compound 384], the “MC4 Inhibition at 4.0 Micromolar” value was “+ (Indicates inhibition greater than . . . 50%)”.

Same assay, conditions: 4.0 micromolar compound
`COC1C(O)C(COCc2ccc3ccccc3c2)OC(OCc2ccc(Cl)cc2)C1NC(=O)C(N)CN` (centres unmarked) [Compound 342] was tested, and the “MC4 Inhibition at 4.0 Micromolar” value was “+ (Indicates inhibition greater than . . . 50%)”. `COC1C(O)C(COCc2ccc3ccccc3c2)OC(OCc2ccc(Cl)cc2)C1NCC(=O)C1CCCN1` (centres unmarked) [Compound 343] was tested, and the “MC4 Inhibition at 4.0 Micromolar” value was “+ (Indicates inhibition greater than . . . 50%)”. With `COC1C(O)C(COCc2ccc3ccccc3c2)OC(OCc2ccc(Cl)cc2)C1NC(=O)C1CCCN(C(=N)N)C1` (centres unmarked) [Compound 344] the “MC4 Inhibition at 4.0 Micromolar” value was “+ (Indicates inhibition greater than . . . 50%)”. For `COC1C(O)C(COCc2ccc3ccccc3c2)OC(OCc2ccc(Cl)cc2)C1NC(=O)CNC(=N)N` (centres unmarked) [Compound 345], the “MC4 Inhibition at 4.0 Micromolar” value was “+ (Indicates inhibition greater than . . . 50%)”. With `COC1C(O)C(COCc2ccc3ccccc3c2)OC(OCc2ccc(Cl)cc2)C1NC(=O)C(N)CN` (centres unmarked) [Compound 346] the “MC4 Inhibition at 4.0 Micromolar” value was “+ (Indicates inhibition greater than . . . 50%)”. `COC1C(O)C(COCc2ccc3ccccc3c2)OC(OCc2ccc(Cl)cc2)C1NCC(=O)C1CCCN1` (centres unmarked) [Compound 347] was tested, and the “MC4 Inhibition at 4.0 Micromolar” value was “+ (Indicates inhibition greater than . . . 50%)”. In the case of `COC1C(O)C(COCc2ccc3ccccc3c2)OC(OCc2ccc(Cl)cc2)C1NC(=O)C1CCN(C(=N)N)CC1` (centres unmarked) [Compound 348], the “MC4 Inhibition at 4.0 Micromolar” value is reported as “+ (Indicates inhibition greater than . . . 50%)”. For `COC1C(O)C(COCc2ccc3ccccc3c2)OC(OCc2ccc(Cl)cc2)C1NC(=O)CNC(=N)N` (centres unmarked) [Compound 349], the “MC4 Inhibition at 4.0 Micromolar” value was “+ (Indicates inhibition greater than . . . 50%)”.

Same assay, conditions: 10 micromolar compound; recombinant human receptor membranes (HEK 293)
For `CSC1OC(COCc2cccc(N)c2)C(O)C(OCc2ccc(Cl)cc2)C1NC(=O)CCC1CNc2ccccc21` (centres unmarked) [Compound 332], the “MC4 inhibition at 10 micromolar” value was “+ (Indicates inhibition greater than . . . 50%)”. `CSC1O[C@H](COCc2cccc(N)c2)[C@@H](O)[C@H](OCc2ccccc2)[C@H]1NC(=O)c1ccccc1` (some centres unmarked) [Compound 333] was tested, and the “MC4 inhibition at 10 micromolar” value was “+ (Indicates inhibition greater than . . . 50%)”. For `CSC1O[C@H](COCc2cccc(N)c2)[C@@H](O)[C@H](OCc2ccccc2)[C@H]1NC(=O)Cc1ccccc1` (some centres unmarked) [Compound 334], the “MC4 inhibition at 10 micromolar” value was “+ (Indicates inhibition greater than . . . 50%)”. `CSC1O[C@H](COCc2cccc(N)c2)[C@@H](O)[C@H](OCc2ccccc2)[C@H]1NC(=O)/C=C/c1ccccc1` (some centres unmarked) [Compound 335] was tested, and the “MC4 inhibition at 10 micromolar” value was “+ (Indicates inhibition greater than . . . 50%)”. In the case of `CSC1O[C@H](COCc2cccc(N)c2)[C@@H](O)[C@H](OCc2ccc(Cl)cc2)[C@H]1NC(=O)/C=C/c1ccccc1` (some centres unmarked) [Compound 340], the “MC4 inhibition at 10 micromolar” value is reported as “+ (Indicates inhibition greater than . . . 50%)”.
